Holding throughout (experiment): cells
The subject of one assay is A2780 cells. Also noted: species or system 2008, C13*, A2780/CP; growth inhibition of human ovarian cancer cell lines after 72 h treatment, cell counts. As to conditions: Homo sapiens, A2780, 72 h. How it is done: (§1) The drug concentrations used in the combinations were based on the IC50s. These are reported in Table S3 of the Supplementary Information. The effects of binary combinations were determined with both drug concentrations lower than their IC50s and were characterized in terms of the synergism quotient. […] With 5 μM 5FU alone, cell growth inhibitions were 24.7, 21.2, 28.3, and 27.1% for 2008, C13*, A2780, and A2780/CP, respectively. […] The bars represent the mean of duplicate cell counts on three separate experiments. A quotient > 1 indicates synergism, =1, additivity <1 antagonism. Error bars represent SEM.

For another assay, the system named is 2008 cells. Details: species or system C13*, A2780, A2780/CP; growth inhibition of human ovarian cancer cell lines after 72 h treatment, cell counts. As to conditions: 72 h. How it is done: as §1
The subject of a further assay is A2780/CP cells. Also noted: species or system 2008, C13*; growth inhibition of human ovarian cancer cell lines after 72 h treatment, cell counts. As to conditions: A2780C/P, 72 h. How it is done: as §1
For the next assay, the system named is C13* cells. Details: species or system 2008, A2780, A2780/CP; growth inhibition of human ovarian cancer cell lines after 72 h treatment, cell counts. As to conditions: Homo sapiens, C13, 72 h. How it is done:
as §1

Where two headings read alike, the source gives them in different places.

For the molecule `O=c1[nH]cc(F)c(=O)[nH]1` [5-FU, 5-fluorouracil], the IC50 (usually the concentration that gives 50% inhibition) in the assay with A2780 cells (read-out: 5-FU (µM) IC50) was determined as 9.5 ± 0.8 µM; in the assay on 2008 cells (read-out: 5-FU (µM) IC50), 6.3 ± 0.4 µM; in the assay on A2780/CP cells (read-out: 5-FU (µM) IC50) it was 12.9 ± 1.1 µM; with C13* cells (read-out: 5-FU (µM) IC50), 12.4 ± 0.8 µM.

Consider `Cc1nc(=O)c2cc(CN(C)c3ccc(C(=O)N[C@@H](CCC(=O)O)C(=O)O)s3)ccc2[nH]1` [RTX, N-[(5-{methyl[(2-methyl-4-oxo-1,4-dihydroquinazolin-6-yl)methyl]amino}-2-thienyl)carbonyl]-L-glutamic acid], for which the IC50 in the assay on A2780 cells (read-out: RTX (nM) IC50) turned out to be 0.0086 ± 0.0012 µM; with 2008 cells (read-out: RTX (nM) IC50), 0.0095 ± 0.001 µM; with A2780/CP cells (read-out: RTX (nM) IC50), 0.0311 ± 0.0029 µM; in the assay with C13* cells (read-out: RTX (nM) IC50) it was 0.0262 ± 0.003 µM.

Values taken from article PMC8123127, “Structural Bases for the Synergistic Inhibition of Human Thymidylate Synthase and Ovarian Cancer Cell Growth by Drug Combinations” (Cancers, 2021).
